The subject of data set [1] is Mycobacterium tuberculosis. Put plainly: Antitubercular activity against Mycobacterium tuberculosis H37Rv by Bactec 460 method. It counts as functional.
In data set [2] the test system is Mycobacterium tuberculosis. Put plainly: Antitubercular activity against Mycobacterium tuberculosis H37Rv at 500 ug/ml by Bactec 460 method. It counts as functional, organism-based.
Data set [3] concerns Mus musculus. Put plainly: Acute toxicity in Swiss albino mouse assessed as observational changes at 5 to 300 mg/kg, po administered as single dose. It counts as organism-based. On the set-up: dose 5-300 mg/kg, route oral. Particulars: in vivo.
For data set [4], the system named is Mus musculus. Put plainly: Acute toxicity in Swiss albino mouse assessed as morbidity at 5 to 300 mg/kg, po administered as single dose. The note with it: in vivo. It counts as organism-based. On the set-up: dose 5-300 mg/kg, route oral.
In data set [5] the test system is Mus musculus. Put plainly: Acute toxicity in Swiss albino mouse assessed as mortality at 5 to 300 mg/kg, po administered as single dose. The note with it: in vivo. It counts as organism-based. On the set-up: dose 5-300 mg/kg, route oral.
Data set [6] deals with Mus musculus. Put plainly: Acute toxicity in Swiss albino mouse assessed as change in total RBC at 5 to 300 mg/kg, po administered as single dose. It counts as organism-based. On the set-up: dose 5-300 mg/kg, route oral. The note with it: in vivo.
Data set [7] deals with Mus musculus. Put plainly: Acute toxicity in Swiss albino mouse assessed as change in total WBC count at 5 to 300 mg/kg, po administered as single dose. It counts as organism-based. On the set-up: dose 5-300 mg/kg, route oral. The note with it: in vivo.
Data set [8] concerns Mus musculus. Put plainly: Acute toxicity in Swiss albino mouse assessed as change in differential leukocyte count at 5 to 300 mg/kg, po administered as single dose. It counts as organism-based. On the set-up: dose 5-300 mg/kg, route oral. Particulars: in vivo.
Data set [9] deals with Mus musculus. Put plainly: Acute toxicity in Swiss albino mouse assessed as change in hemoglobin level at 5 to 300 mg/kg, po administered as single dose. It counts as organism-based. On the set-up: dose 5-300 mg/kg, route oral. Particulars: in vivo.
The subject of data set [10] is Mus musculus. Put plainly: Acute toxicity in Swiss albino mouse assessed as change in serum total cholesterol level at 5 to 300 mg/kg, po administered as single dose. On the set-up: dose 5-300 mg/kg, route oral. Particulars: in vivo. It counts as organism-based.
The subject of data set [11] is Mus musculus. Put plainly: Acute toxicity in Swiss albino mouse assessed as change in triglyceride level at 5 to 300 mg/kg, po administered as single dose. It counts as organism-based. On the set-up: dose 5-300 mg/kg, route oral. Particulars: in vivo.
Data set [12] deals with Mus musculus. Put plainly: Acute toxicity in Swiss albino mouse assessed as change in creatinine level at 5 to 300 mg/kg, po administered as single dose. It counts as organism-based. On the set-up: dose 5-300 mg/kg, route oral. The note with it: in vivo.
The subject of data set [13] is Mus musculus. Put plainly: Acute toxicity in Swiss albino mouse assessed as change in SGPT level at 5 to 300 mg/kg, po administered as single dose. It counts as organism-based. On the set-up: dose 5-300 mg/kg, route oral. The note with it: in vivo.
Data set [14] relates to Mus musculus. Put plainly: Acute toxicity in Swiss albino mouse assessed as change in SGOT level at 5 to 300 mg/kg, po administered as single dose. It counts as organism-based. Particulars: in vivo. On the set-up: dose 5-300 mg/kg, route oral.
In data set [15] the test system is Mus musculus. Put plainly: Acute toxicity in Swiss albino mouse assessed as change in absolute and relative weight of the organs at 5 to 300 mg/kg, po administered as single dose. The note with it: in vivo. On the set-up: dose 5-300 mg/kg, route oral. It counts as organism-based.
Data set [16] can be described thus: Acute toxicity in po dosed Swiss albino mouse administered as single dose. It counts as organism-based. The note with it: in vivo.

Converted amounts (≈) assume the structure as drawn. The source made the active and inactive calls. No cut-off for these calls is given here.

Data on 23 molecules can be found in ChEMBL document CHEMBL1795209, “1-Chloro-2-formyl indenes and tetralenes as antitubercular agents” (Bioorg Med Chem Lett, 2011).

Molecule `COc1ccc2c(c1)CCCC2` yielded an MIC in [1] of 125 µg/mL (≈ 771 µM).
The same measure, in the same setting: as for `COc1ccc2c(c1)CCC(CO)=C2Cl`, the figure is 500 µg/mL (≈ 2230 µM); as for `O=CC1=C(Cl)c2ccc(Cl)cc2C1`, 125 µg/mL (≈ 587 µM).
Consider `COc1cc(C2C(C=O)=C(Cl)c3cc(OC)c(OC)c(OC)c32)cc(OC)c1OC` (configuration not stated), for which the outcome in [2] was inactive.
In data set [1], `Cc1cccc2c1C(Cl)=C(C=O)C2` came in with an MIC of 125 µg/mL (≈ 649 µM).
In the case of `COc1ccc2c(c1)CCC/C2=N\O`, the lowest concentration to inhibit growth in data set [1] (MIC) was 500 µg/mL (≈ 2610 µM). Against the preceding molecule, the MIC is about 4-fold higher.
With `COc1cc2c(cc1C=O)C=CCC2`, it took 500 µg/mL (≈ 2660 µM) to inhibit growth in [1] (MIC).
For `COc1ccc2c(c1)CCCC2O` (configuration not stated), in [2], the outcome was inactive.
For the molecule `Cc1cc(O)c2c(c1)[C@H](O)CCC2=O` [SHINANOLONE], the MIC in data set [1] was found to be 100 µg/mL (≈ 520 µM).
For `Cc1ccc2c(c1)CC(C=O)=C2Cl`, inhibition of growth in data set [1] (MIC) required 250 µg/mL (≈ 1300 µM).
In data set [1], `O=Cc1cc2ccccc2c(Cl)c1C=O` gave an MIC of 500 µg/mL (≈ 2290 µM). This MIC lies about 2-fold higher than the previous one.
Still for that read-out and setting: as for `CC1CC(C=O)=C(Cl)c2ccccc21` (configuration not stated), the figure is 125 µg/mL (≈ 605 µM); as for `CO[C@H]1CCC(=O)c2cccc(O)c21`, 6.25 µg/mL (≈ 32.5 µM); as for `O=CC1=C(Cl)c2ccccc2CC1`, 60 µg/mL (≈ 311 µM).
The same measure, in the same setting: the result for `O=CC1=C(Cl)c2ccccc2C1c1ccccc1` (configuration not stated) reads 250 µg/mL (≈ 981 µM); that for `COc1ccc2c(c1)CC(C=O)=C2Cl`, 125 µg/mL (≈ 599 µM).
On the same count and under the same terms, as for `COc1ccc2c(c1)CCCC2OC(C)=O` (configuration not stated), the figure is 30 µg/mL (≈ 136 µM).
For `O=CC1=C(Cl)c2cc3c(cc2C1)OCO3`, the MIC in data set [1] was determined as 125 µg/mL (≈ 561 µM).
With `CN[C@@H]1[C@H](O[C@H]2[C@H](O[C@H]3[C@H](O)[C@@H](O)[C@H](N=C(N)N)[C@@H](O)[C@@H]3N=C(N)N)O[C@@H](C)[C@]2(O)C=O)O[C@@H](CO)[C@H](O)[C@H]1O` [STREPTOMYCIN], in data set [1], the lowest concentration to inhibit growth (MIC) was 2 µg/mL (≈ 3.44 µM).
On the same count and under the same terms, as for `CO[C@H]1/C=C/O[C@@]2(C)Oc3c(C)c(O)c4c(O)c(c(/C=N/N5CCN(C)CC5)c(O)c4c3C2=O)NC(=O)/C(C)=C\C=C\[C@H](C)[C@H](O)[C@@H](C)[C@@H](O)[C@@H](C)[C@H](OC(C)=O)[C@@H]1C` [RIFAMPIN], the figure is 2 µg/mL (≈ 2.43 µM); as for `COc1ccc2c(c1)CCC(C=O)=C2Cl`, 125 µg/mL (≈ 561 µM).
Regarding `COc1ccc2c(c1)C(Cl)=C(C=O)C1C2CC[C@@]2(C)C1CC[C@@H]2OC(C)=O` (some centres not stated), the outcome in data set [2] was inactive.
`COc1ccc2c(c1)CCC(OC=O)=C2Cl` showed an MIC in data set [1] of 30 µg/mL (≈ 126 µM). Moreover, the Activity result in data set [3], in [4], in [5], in [6], in [7] and in data set [8] was “Non-toxic” each time. The Activity entry in data set [9], in [10], in data set [11], in data set [12], in data set [13] and in data set [14] was “Non-toxic” each time. Besides, the Activity result in [15] is “Non-toxic”. Moreover, in data set [16], the MTD turned out to be 300 mg/kg.

By MIC is commonly meant the least concentration at which growth counts as inhibited. A high value points to a less susceptible organism.
